According to patent US20070128217A1 (priority 2003, published 2007):

Experiments:
[1] = system: antibodies in sera from SARS patients (sera 1a, 1b, 2, 6, 37, 62, London, SARS-yellow, SARS-green); type: binding, human; design: Binding of serum 6 to linear peptides of protein X1 of SARS-CoV Urbani / Binding of serum 37 to linear peptides of protein X1 of SARS-CoV Urbani / Binding of serum 6 to looped/cyclic peptide (PEPSCAN-ELISA) / Binding of serum 37 to looped/cyclic peptide (PEPSCAN-ELISA) / Binding of serum 37 to looped/cyclic peptides of protein X1 of SARS-CoV Urbani / Binding of serum 6 to linear peptides of protein X2 / Binding of serum 37 to linear peptides of protein X2 / Binding of serum 37 to looped/cyclic peptides of protein X2 of SARS-CoV Urbani / Binding of serum 6 to linear peptides of protein M of SARS-CoV Urbani / Binding of serum 37 to linear peptides of protein M of SARS-CoV Urbani / Binding of serum 6 to looped/cyclic peptides of protein M of SARS-CoV Urbani / Binding of serum 37 to looped/cyclic peptides of protein M of SARS-CoV Urbani / Binding of serum 6 to linear peptides of protein X3 of SARS-CoV Urbani / Binding of serum 37 to linear peptides of protein X3 of SARS-CoV Urbani / Binding of serum 37 to looped/cyclic peptides of protein X3 of SARS-CoV Urbani / Binding of serum 6 to linear peptides of protein X4 of SARS-CoV Urbani / Binding of serum 37 to linear peptides of protein X4 of SARS-CoV Urbani / Binding of serum 37 to looped/cyclic peptides of protein X4 of SARS-CoV Urbani / Binding of serum 6 to linear peptides of protein X5 of SARS-CoV Urbani / Binding of serum 37 to linear peptides of protein X5 of SARS-CoV Urbani / Binding of serum 37 to looped/cyclic peptides of protein X5 of SARS-CoV Urbani / Binding of serum 6 to linear peptides of protein N of SARS-CoV Urbani / Binding of serum 37 to linear peptides of protein N of SARS-CoV Urbani / Binding of serum 6 to linear peptide (PEPSCAN-ELISA) / Binding of serum 1a to looped/cyclic peptides of protein N of SARS-CoV Urbani / Binding of serum 1b to looped/cyclic peptides of protein N of SARS-CoV Urbani / Binding of serum 2 to looped/cyclic peptides of protein N of SARS-CoV Urbani / Binding of serum 6 to looped/cyclic peptides of protein N of SARS-CoV Urbani / Binding of serum 37 to looped/cyclic peptides of protein N of SARS-CoV Urbani / Binding of serum 62 to looped/cyclic peptides of protein N of SARS-CoV Urbani / Binding of serum London to looped/cyclic peptides of protein N of SARS-CoV Urbani / Binding of serum SARS-green to looped/cyclic peptides of protein N of SARS-CoV Urbani: unit not given here
[2] = system: control sera (pooled serum of ten healthy LUMC hospital workers; commercial negative donor pooled serum from the Dutch bloodbank); type: binding, human; design: Binding of Control serum LUMC to linear peptides / Binding of Control serum Blood-bank to linear peptides / Binding of Control serum LUMC to looped peptides / Binding of Control Serum Blood-Bank to Looped peptides / Binding of Control serum LUMC to linear peptides of the protein M of SARS-CoV Urbani / Binding of Control serum Blood-bank to linear peptides of the protein M of SARS-CoV Urbani / Binding of Control serum LUMC to looped peptides of the protein M of SARS-CoV Urbani / Binding of Control Serum Blood-Bank to Looped peptides of the protein M of SARS-CoV Urbani: unit not given here
[3] = system: rabbit serum obtained by immunizing a rabbit with the SARS-CoV strain Frankfurt 1; type: binding; design: Binding of a rabbit serum to linear peptides / Binding of a rabbit serum to looped peptides / Rabbit serum linear peptides / Rabbit serum looped peptides / Binding of a rabbit serum to linear peptides of protein N of SARS-CoV Urbani (Rabbit serum linear peptides) / Binding of a rabbit serum to looped/cyclic peptides of protein N of SARS-CoV Urbani (Rabbit serum looped peptides): unit not given here

TTSLSLHKLLQTLVL
0.5: Binding of serum 1a to linear peptides of protein X2 [1] | Binding of serum 1a to looped/cyclic peptides of protein X2 of SARS-CoV Urbani [1] | Binding of serum 1b to linear peptides of protein X2 [1] | Binding of serum 6 to linear peptides of protein X2 [1] | Binding of serum 6 to looped/cyclic peptides of protein X2 of SARS-CoV Urbani [1] | Binding of serum 37 to linear peptides of protein X2 [1] | Binding of serum 37 to looped/cyclic peptides of protein X2 of SARS-CoV Urbani [1] | Binding of serum 62 to linear peptides of protein X2 [1] | Binding of serum London to linear peptides of protein X2 [1] | Binding of serum SARS-yellow to looped/cyclic peptides of protein X2 of SARS-CoV Urbani [1]
1.3: Binding of serum London to looped/cyclic peptides of protein X2 of SARS-CoV Urbani [1]
0.6: Binding of serum 62 to looped/cyclic peptides of protein X2 of SARS-CoV Urbani [1] | Binding of serum SARS-green to linear peptides of protein X2 [1] | Binding of Control Serum Blood-Bank to Looped peptides [2] | Binding of Control serum Blood-bank to linear peptides [2] | Binding of Control serum LUMC to looped peptides [2]
0.1: Binding of a rabbit serum to linear peptides [3]
0.3: Binding of serum 2 to linear peptides of protein X2 [1] | Binding of serum SARS-green to looped/cyclic peptides of protein X2 of SARS-CoV Urbani [1] | Binding of serum SARS-yellow to linear peptides of protein X2 [1]
0.4: Binding of serum 1b to looped/cyclic peptides of protein X2 of SARS-CoV Urbani [1] | Binding of serum 2 to looped/cyclic peptides of protein X2 of SARS-CoV Urbani [1] | Binding of Control serum LUMC to linear peptides [2] | Binding of a rabbit serum to looped peptides [3]

TVSQIQLSLLKVTAF
0.5: Binding of serum 1a to linear peptides of protein X2 [1] | Binding of serum 1a to looped/cyclic peptides of protein X2 of SARS-CoV Urbani [1] | Binding of serum 1b to looped/cyclic peptides of protein X2 of SARS-CoV Urbani [1] | Binding of serum 6 to linear peptides of protein X2 [1] | Binding of Control serum Blood-bank to linear peptides [2] | Binding of a rabbit serum to looped peptides [3]
0.4: Binding of serum 1b to linear peptides of protein X2 [1] | Binding of serum 2 to linear peptides of protein X2 [1] | Binding of serum 2 to looped/cyclic peptides of protein X2 of SARS-CoV Urbani [1] | Binding of serum 37 to looped/cyclic peptides of protein X2 of SARS-CoV Urbani [1] | Binding of serum 62 to linear peptides of protein X2 [1] | Binding of serum SARS-green to looped/cyclic peptides of protein X2 of SARS-CoV Urbani [1]
0.1: Binding of serum SARS-green to linear peptides of protein X2 [1]
1.4: Binding of serum London to looped/cyclic peptides of protein X2 of SARS-CoV Urbani [1]
0.7: Binding of serum SARS-yellow to looped/cyclic peptides of protein X2 of SARS-CoV Urbani [1] | Binding of Control Serum Blood-Bank to Looped peptides [2] | Binding of Control serum LUMC to looped peptides [2]
0.3: Binding of serum London to linear peptides of protein X2 [1]
0.6: Binding of serum 37 to linear peptides of protein X2 [1] | Binding of serum 62 to looped/cyclic peptides of protein X2 of SARS-CoV Urbani [1] | Binding of serum SARS-yellow to linear peptides of protein X2 [1] | Binding of Control serum LUMC to linear peptides [2] | Binding of a rabbit serum to linear peptides [3]
1.0: Binding of serum 6 to looped/cyclic peptides of protein X2 of SARS-CoV Urbani [1]

TVYHITVSQIQLSLL
0.1: Binding of serum SARS-green to linear peptides of protein X2 [1]
0.3: Binding of serum 2 to looped/cyclic peptides of protein X2 of SARS-CoV Urbani [1] | Binding of serum SARS-yellow to looped/cyclic peptides of protein X2 of SARS-CoV Urbani [1] | Binding of a rabbit serum to looped peptides [3]
0.6: Binding of serum 1a to linear peptides of protein X2 [1] | Binding of serum 37 to linear peptides of protein X2 [1] | Binding of Control Serum Blood-Bank to Looped peptides [2]
0.2: Binding of serum 6 to looped/cyclic peptides of protein X2 of SARS-CoV Urbani [1] | Binding of serum London to looped/cyclic peptides of protein X2 of SARS-CoV Urbani [1] | Binding of serum SARS-green to looped/cyclic peptides of protein X2 of SARS-CoV Urbani [1]
0.7: Binding of serum SARS-yellow to linear peptides of protein X2 [1] | Binding of a rabbit serum to linear peptides [3]
0.4: Binding of serum 1a to looped/cyclic peptides of protein X2 of SARS-CoV Urbani [1] | Binding of serum 1b to looped/cyclic peptides of protein X2 of SARS-CoV Urbani [1] | Binding of serum 6 to linear peptides of protein X2 [1] | Binding of serum 37 to looped/cyclic peptides of protein X2 of SARS-CoV Urbani [1] | Binding of serum 62 to linear peptides of protein X2 [1] | Binding of serum London to linear peptides of protein X2 [1]
0.5: Binding of serum 1b to linear peptides of protein X2 [1] | Binding of serum 2 to linear peptides of protein X2 [1] | Binding of serum 62 to looped/cyclic peptides of protein X2 of SARS-CoV Urbani [1] | Binding of Control serum Blood-bank to linear peptides [2] | Binding of Control serum LUMC to linear peptides [2] | Binding of Control serum LUMC to looped peptides [2]

TYSTAWLCALGKVLP
1.1: Binding of serum 2 to looped/cyclic peptides of protein X5 of SARS-CoV Urbani [1]
0.9: Binding of serum 2 to linear peptides of protein X5 of SARS-CoV Urbani [1] | Binding of Control serum Blood-bank to linear peptides [2]
0.4: Binding of serum 6 to looped/cyclic peptides of protein X5 of SARS-CoV Urbani [1] | Binding of serum SARS-yellow to linear peptides of protein X5 of SARS-CoV Urbani [1]
0.8: Binding of serum 1a to linear peptides of protein X5 of SARS-CoV Urbani [1] | Binding of serum 62 to linear peptides of protein X5 of SARS-CoV Urbani [1] | Binding of serum 62 to looped/cyclic peptides of protein X5 of SARS-CoV Urbani [1]
0.3: Binding of serum 1b to looped/cyclic peptides of protein X5 of SARS-CoV Urbani [1] | Binding of serum SARS-green to looped/cyclic peptides of protein X5 of SARS-CoV Urbani [1]
0.5: Binding of serum 1a to looped/cyclic peptides of protein X5 of SARS-CoV Urbani [1] | Binding of serum SARS-yellow to looped/cyclic peptides of protein X5 of SARS-CoV Urbani [1] | Binding of Control Serum Blood-Bank to Looped peptides [2] | Binding of Control serum LUMC to linear peptides [2]
0.2: Binding of serum London to looped/cyclic peptides of protein X5 of SARS-CoV Urbani [1]
0.7: Binding of serum 37 to linear peptides of protein X5 of SARS-CoV Urbani [1] | Binding of serum London to linear peptides of protein X5 of SARS-CoV Urbani [1] | Binding of serum SARS-green to linear peptides of protein X5 of SARS-CoV Urbani [1] | Rabbit serum looped peptides [3]
0.6: Binding of serum 1b to linear peptides of protein X5 of SARS-CoV Urbani [1] | Binding of serum 6 to linear peptides of protein X5 of SARS-CoV Urbani [1] | Binding of serum 37 to looped/cyclic peptides of protein X5 of SARS-CoV Urbani [1] | Binding of Control serum LUMC to looped peptides [2] | Rabbit serum linear peptides [3]

VAAGMEAQFLYLYAL
0.1: Binding of a rabbit serum to linear peptides [3]
0.7: Binding of serum 1a to linear peptides of protein X1 of SARS-CoV Urbani [1]
0.3: Binding of serum 6 to looped/cyclic peptide (PEPSCAN-ELISA) [1] | Binding of serum SARS-green to looped/cyclic peptide (PEPSCAN-ELISA) [1] | Binding of serum SARS-yellow to linear peptides of protein X1 of SARS-CoV Urbani [1]
0.9: Binding of Control serum LUMC to linear peptides [2]
0.4: Binding of serum 1b to looped/cyclic peptide (PEPSCAN-ELISA) [1] | Binding of serum 2 to looped/cyclic peptide (PEPSCAN-ELISA) [1] | Binding of serum 6 to linear peptides of protein X1 of SARS-CoV Urbani [1] | Binding of serum 62 to linear peptides of protein X1 of SARS-CoV Urbani [1]
0.8: Binding of Control serum LUMC to looped peptides [2]
0.5: Binding of serum 1a to looped/cyclic peptide (PEPSCAN-ELISA) [1] | Binding of serum 2 to linear peptides of protein X1 of SARS-CoV Urbani [1] | Binding of serum 37 to linear peptides of protein X1 of SARS-CoV Urbani [1] | Binding of serum 37 to looped/cyclic peptide (PEPSCAN-ELISA) [1] | Binding of serum 62 to looped/cyclic peptide (PEPSCAN-ELISA) [1] | Binding of serum SARS-yellow to looped/cyclic peptide (PEPSCAN-ELISA) [1] | Binding of Control Serum Blood-Bank to Looped peptides [2] | Binding of Control serum Blood-bank to linear peptides [2] | Binding of a rabbit serum to looped peptides [3]
0.2: Binding of serum London to linear peptides of protein X1 of SARS-CoV Urbani [1] | Binding of serum London to looped/cyclic peptide (PEPSCAN-ELISA) [1] | Binding of serum SARS-green to linear peptides of protein X1 of SARS-CoV Urbani [1]
0.6: Binding of serum 1b to linear peptides of protein X1 of SARS-CoV Urbani [1]
